We go through one compound from article PMC9065877, “Safety, tolerability and pharmacokinetics of the oligomer modulator anle138b with exposure levels sufficient for therapeutic efficacy in a murine Parkinson model: A randomised, double-blind, placebo-controlled phase 1a trial” (EBioMedicine, 2022).

Structures are written as SMILES. Where only a bound is given, the exact number is not on record here.

The conditions of data set [1]: animal studies; cited from earlier work.
Data set [2] can be described thus: Oral pharmacokinetics, overall statements across SAD, MAD and FES parts. The data set is classed as in vivo, human. As to the method:
As a safety precaution, sentinel dosing was performed for all SAD and MAD cohorts. In SAD, subjects received a single dose of anle138b or placebo after fasting from all food and drink (except water) for a minimum of 8 h prior to dosing. The dosing in the four SAD-cohorts were 50 mg, 100 mg, 200 mg and 300 mg of free anle138b equivalent, respectively. In the MAD part, participants received anle138b or placebo once daily (QD) for 7 days after fasting from all food and drink (except water) for a minimum of 8 h prior to dosing. The dosing in the three MAD-cohorts was 100 mg, 200 mg and 300 mg of free anle138b equivalent, respectively. Post dosing mouth and hand checks were conducted to ensure the capsules were swallowed. In-study decisions regarding continuation and dose escalation were made by the safety advisory committee (SAC) comprising the principal investigator, the sponsor's medical monitor and a PK expert. For dose escalation to proceed, data needed to be available from a minimum of 6 subjects per cohort with completed per protocol safety and PK assessments up to 48 h after dosing to ensure at least 4 subjects had received active IMP. The decision to proceed to the next higher dose level was based on safety, tolerability and available PK data to 48 h post-dose. The following data were required: Adverse events, vital signs, safety laboratory, ECG, physical examinations, plasma concentrations of anle138b with interim PK parameter estimations (Tmax, Cmax, AUC(0-24), AUC(0-tau), AUC(0-last) and T½, where applicable). Data were provided to the SAC in accordance with Quotient Sciences’ standard operating procedure (SOP) on interim dose decision-making and dose escalation. […]
Secondary outcome measures were the oral PK of single (SAD) and multiple (MAD) ascending doses of anle138b in the fasted state as well as the effect of co-administration with food on the PK of anle138b. […] Time point of last quantifiable data was seen to increase with an increase in dose as follows: SAD: from the 50mg dose (subjects ranged between 8-24h) to the 300mg dose (subjects ranged between 36-48h). […]

Data set [3] is described as follows: Blood levels of anle138b after chronic dosing (14 days) in food pellets. The data set is classed as in vivo. Also on record: dose or concentration left out as unconfirmed. The settings on record: mouse, oral, doses of ≥11·, read-out: AUC0-24 exposure. The protocol: Based on the analysis of blood levels of anle138b after chronic dosing (14 days) using the same formulation (anle138b in food pellets), doses of ≥11·1 mg/kg/day correspond to an AUC0-24 exposure of ≥ 300 ng*h/ml.

Data set [4] can be described thus: Food effect study (FES), 150 mg single dose fed vs fasted, pharmacokinetics in healthy subjects, plasma. The settings on record: for Cmax / AUC(0-t): po, 150 mg, FES 150 mg single oral dose, geometric mean (CV%); for AUC(0-t): read-out: AUC(0-24). The data set is classed as in vivo, human. The protocol: This was a single-centre, double-blind, randomised, placebo-controlled single ascending dose (SAD) and multiple ascending dose (MAD) study of anle138b in doses of up to 300 mg per day in healthy subjects. In addition, the effect of food (FES) on the PK of anle138b in healthy subjects was examined using single doses of 150 mg. Participants were recruited from Quotient Sciences (Nottingham, UK) volunteer database.
This dose was administered either i) after a standard FDA-approved high-fat breakfast or ii) in the fasted state i.e., fasted from all food and drink (except water) for a minimum of 8 h prior to dosing. In total, one cohort of 12 subjects was randomised in a 1:1 ratio to 2 treatment sequences (fed→fasted) or (fasted→fed). A minimum washout of at least 5 half-lives of anle138b between each dose was assured.
Secondary outcome measures were the oral PK of single (SAD) and multiple (MAD) ascending doses of anle138b in the fasted state as well as the effect of co-administration with food on the PK of anle138b. To this end PK blood samples were taken at day 1 (and for MAD day 7) pre-dose and at 0·5, 1, 1·5, 2, 3, 4, 6, 8, 10, 12, 16 and 20 h post-dose, at days 2 to 6 pre-dose only (MAD) and 24, 30, 36 and 48 h post final dose. Analysis of anle138b in plasma was done at Aptuit, an Evotec company, in Verona, Italy. Time point of last quantifiable data was seen to increase with an increase in dose as follows: SAD: from the 50mg dose (subjects ranged between 8-24h) to the 300mg dose (subjects ranged between 36-48h). MAD: from the 100mg dose (subjects ranged between 8-36h) to the 300mg dose (subjects ranged between 20-48h). In FES, subjects ranged between 24-48h.
The study was exploratory and no formal sample size calculation was made. Based on experience from previous studies of similar design, eight subjects per cohort were enrolled for parts 1 (SAD) and 2 (MAD) and a total of twelve subjects for part 3 (FES). Populations and analysis sets were determined for safety and PK data after database lock using the criteria defined in the reporting and analysis plan. The safety population and safety analysis set for SAD and MAD were defined after database lock but prior to study unblinding. Statistical analysis and production of summary tables, figures and listings for all safety data (AEs, vital signs, ECGs and safety laboratory assessments) including changes from baseline as required in this study were performed using the statistical package SAS (v9·4). Additional statistics was provided for PK-related data including coefficient of variation (CV%), geometric mean, geometric CV%, and the number n of subjects that were included in the natural logarithmic transformation). In SAD and MAD, dose proportionality was assessed. Formal statistical analysis was performed on the log-transformed PK parameters AUC(0-last), AUC(0-inf), and Cmax for SAD (day 1), and AUC(0-tau) and Cmax for MAD (day 1 and day 7) to assess dose proportionality using the following power model: loge (AUC or Cmax) = µ + βx loge (dose). The estimate obtained for β is a measure of dose proportionality. The estimate of β together with its 90% confidence interval (CI) (βl, βu) was used to quantify the degree of non-proportionality. In MAD, formal statistical analysis was performed on the PK parameters AUC(0-tau) and Cmax to assess dose accumulation. Log-transformed AUC(0-tau) and Cmax was subjected to a mixed-effects model with treatment (dose level), day (day 1 or 7) and treatment-by-day interaction as fixed effects and subject as a random effect. The adjusted means obtained from the model, including differences for each comparison of interest and the associated 90% CIs, was back-transformed on the log scale to obtain adjusted geometric means, adjusted geometric mean ratios (GMRs) and 90% CIs of the ratio. The GMRs and 90% CIs were provided for each treatment and overall, i.e., day 7/day 1. […]

Where [5] appears, read: human, plasma, fed (high-fat breakfast).

With `Brc1cccc(-c2cc(-c3ccc4c(c3)OCO4)n[nH]2)c1` [anle138b, 3-(1,3-benzodioxol-5-yl)-5-(3-bromophenyl)-1H-pyrazole], in data set [1], the “Levels of anle138b in the brain relative to plasma” value was 5 fold and the “Oral bioavailability (in words)” value is on record as “high oral bioavailability”. The half-life in data set [2] (human, plasma, oral, authors' conclusion from SAD data, read-out: true T½ of anle138b in human plasma) is at least 10 h. The practical elimination half-time in data set [2] (overall PK data) is reported as about 12 h. In data set [2] (overall PK data, fasted and fed conditions), the “Bioavailability (in words)” value is reported as “good bioavailability”. For the same compound, the AUC(0-t) in data set [3] is at least 300 ng·h/mL. In data set [4] (FES 150 mg), the “Time point of last quantifiable data (range of subjects)” value lay within 24 to 48 h. Moreover, in data set [4] (FES 150 mg, fed vs fasted), the “Effect of food on Cmax” value is recorded as “decreased by about half” and the “Food effect on AUC” value is “clinically insignificant”. The bioavailability in data set [4] (human, plasma, oral, FES 150 mg, 90% CI: 61%, 88%, read-out: Dose bioavailable in the fed state compared to the fasted state) is about 74%. For the same compound, in data set [4] (human, plasma, fasted), the Cmax amounted to 442 ng/mL and the AUC(0-t) is 896 ng·h/mL. Moreover, in data set [4] (setting [5]), the Cmax came to 196 ng/mL and the AUC(0-t) was determined as 641 ng·h/mL.
